This passage reports inhibition results from US9834520B2, “Heterocyclic compound” (TAKEDA PHARMACEUTICAL COMPANY LIMITED, priority 2013, dated 2017).

Test [1] concerns human PBMC. Briefly: IL17 production test in human PBMC. Conditions: 72 h, 10 μM of test compound, IL-17A in culture supernatant, 3 days, read-out: inhibitory rate (%). Type of test: cell-based. On the procedure:
IL17 Production Test in Human PBMC
Peripheral blood mononuclear cells (PBMC) collected from human peripheral blood by a density gradient centrifugation method were stimulated by Dynabeads (registered trade mark; anti-CD3/CD28 antibody) and cultured at 37° C. for 3 days. The test compound was dissolved in DMSO and then added thereto. After culture for 3 days under such conditions, the concentration of IL-17A in the culture supernatant obtained by centrifugation was measured by ELISA to evaluate the effect of the compound on IL-17 production.

The target in test [2] is T1, RORγt (Homo sapiens, UniProt P51449).
T1 sequence (P51449 1-497 isoform P51449-2): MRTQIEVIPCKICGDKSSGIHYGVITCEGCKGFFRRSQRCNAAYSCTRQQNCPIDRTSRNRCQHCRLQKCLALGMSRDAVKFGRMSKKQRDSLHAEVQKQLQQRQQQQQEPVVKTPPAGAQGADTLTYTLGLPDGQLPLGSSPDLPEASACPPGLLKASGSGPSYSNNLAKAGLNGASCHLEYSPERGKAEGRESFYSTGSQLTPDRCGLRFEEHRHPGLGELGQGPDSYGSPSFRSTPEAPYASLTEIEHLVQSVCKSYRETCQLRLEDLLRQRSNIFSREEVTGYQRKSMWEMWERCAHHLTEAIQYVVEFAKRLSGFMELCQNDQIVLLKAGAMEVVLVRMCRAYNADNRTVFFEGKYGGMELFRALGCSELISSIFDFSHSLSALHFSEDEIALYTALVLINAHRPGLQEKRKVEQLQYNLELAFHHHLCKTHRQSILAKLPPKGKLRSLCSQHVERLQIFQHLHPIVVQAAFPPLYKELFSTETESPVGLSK
Briefly: RORγt binding test (TR-FRET, fluorescent-labeled cholesterol). To be noted: binding inhibitory rate of fluorescent-labeled cholesterol to RORγt at test compound 1 μM. On the procedure: The binding activity of the test compound to RORγt was measured by a time resolved fluorescence resonance energy transfer method (TR-FRET) utilizing histidine-tagged RORγt, fluorescent-labeled cholesterol (BODIPY-cholesterol, AVIVA) and terbium-labeled anti-histidine tag antibody (Invitrogen). First, a test compound diluted with an assay buffer (20 mM Tris-HCl (pH 7.5), 100 mM NaCl, 1 mM DTT, 0.1% BSA) was added to a 384 well plate by 3 μL each. Then, RORγt diluted with an assay buffer to 240 nM was added by 3 μL each, after which fluorescent-labeled cholesterol diluted with the assay buffer to 12 μM was added by 3 μL each, and the mixture was stood at room temperature for 20 min. Thereafter, a terbium-labeled anti-histidine tag antibody diluted with the assay buffer to 8 nM was added by 3 μL each. The mixture was stood at room temperature for 20 min, and fluorescence intensity (excitation wavelength 320 nm, fluorescence wavelength 520 nm, delay time 100 microseconds) was measured by Envision (PerkinElmer).
On the technique in general: TR-FRET usually uses a lanthanide donor and a delayed reading to cut background.

Test [3] has as its target T1, RORγt. The test is described as follows: Cofactor recruitment test (Alpha Screen, biotinylated SRC-1 peptide). Type of test: biochemical. Conditions: test compound 1 μM; read-out: signal value inhibitory rate (%). On the procedure:
Cofactor Recruitment Test
Cofactor recruitment test was performed by Alpha Screen (Histidine Detection Kit, PerkinElmer) method. First, a test compound diluted with an assay buffer (50 mM Tris-HCl (pH 7.5), 50 mM KCl, 1 mM DTT, 0.1% BSA) was added to a 384 well plate by 5 μL each. […] The mixture was stood in a dark place for 1 hr, and the signal value was measured by Envision (PerkinElmer).

Test [4] deals with T1, RORγt. Briefly: Jurkat reporter test (IL-17 ROR response element luciferase). To be noted: test compound 3 μM, Jurkat cells, read-out: luminescence level inhibitory rate (%). Also noted: expressed in transfected cells; host or cells: Jurkat cells. The format is cell-based. On the procedure:
The Jurkat cells used for the reporter test were cultured in a culture medium (RPMI (Invitrogen), 10% FCS (AusGeneX), 100 U/mL penicillin, 100 μg/mL streptomycin). On the day of the test, 4×10^7 cells were recovered by a centrifugal operation (1000 rpm, 5 min.) and suspended in PBS (phosphate buffered saline) (Invitrogen). Thereafter, the cells were recovered again by a centrifugal operation, and suspended in 2 mL of R buffer (NEON transfection kit, Invitrogen). […] Gene transfer was performed by Electroporation apparatus (NEON, Invitrogen) under the conditions of pulse voltage 1350 V, interval 10 milliseconds, number of times 3. The cells after gene transfer were suspended in 40 mL of a reaction medium (RPMI, 10% Lipid reduced FCS (HyClone), 10 mM HEPES (pH 7.5), 100 U/mL penicillin, 100 μg/mL streptomycin, 5 μM lovastatin), and plated in a 96 well plate by 90 μL each. A test compound diluted with the reaction medium was added by 10 μL each, and the cells were cultured overnight in an incubator. Bright-Glo (Promega) was added by 100 μL each, and the mixture was stirred at room temperature for 10 min, and the luminescence level was measured by Envision (PerkinElmer).

Test [5] deals with Th17 cells. Briefly: Mouse Th17 cell differentiation test (IL-17A by ELISA). The format is cell-based. Conditions: 96 h, 10 μM of test compound, IL-17A in culture supernatant, 4 days, read-out: inhibitory rate(%). On the procedure: Mouse Th17 Cell Differentiation Test
CD4 positive naive T cells were collected from the spleen cells of Balb/c mice (female, 8-11w) using CD4+CD62L+ T Cell Isolation kit II (Miltenyi Biotec). The CD4 positive naive T cells was plated in a 96 well plate (3×10^5 cells/well), and stimulated (37° C. for culture) with anti-mouse CD3ε antibody (10 μg/mL, solid phase) and anti-CD28 antibody (5 μg/mL) for 4 days in the presence of anti-IFN-γ antibody, anti-IL-4 antibody, anti-IL-2 antibody, IL-6, TGF-β and IL-23 to differentiate into Th17 cells. The compound was dissolved in DMSO and then added thereto. The cells were cultured under these conditions for 4 days, and differentiation of the Th17 cells was evaluated by using the concentration of IL-17A, which was measured by ELISA, in the culture supernatant obtained by centrifugation.
(In general: An ELISA detects its analyte on a solid surface through an enzyme-linked reagent.)

Read-outs that look alike come from different tables or passages of the source.

`CCC1Oc2cc(NC(=O)CC(C)CC(=O)Nc3ccc(C#N)c(Cl)c3)ccc2N(CC)C1=O` (centres unmarked) [Example 7, N-(3-chloro-4-cyanophenyl)-N′-(2,4-diethyl-3-oxo-3,4-dihydro-2H-1,4-benzoxazin-7-yl)-3-methylpentanediamide]: the inhibition at 10 µM in test [1] was determined as 100%.

As to `CCn1c(=O)c2cc(NC(=O)CC(C)CNC(=O)c3ccc(C#N)c(Cl)c3)ccc2n(CC)c1=O` (centres unmarked) [Example 23, 3-chloro-4-cyano-N-(4-((1,3-diethyl-2,4-dioxo-1,2,3,4-tetrahydroquinazolin-6-yl)amino)-2-methyl-4-oxobutyl)benzamide], the inhibition at 1 µM in test [2] is 97.3%; in test [3] it was 104%. Besides, the inhibition at 3 µM in test [4] was 115%. Further, in test [5], the inhibition at 10 µM was determined as 94%.

In the case of `CC(CC(=O)Nc1ccc(C#N)c(Cl)c1)CC(=O)Nc1ccc2c(c1)c(=O)n(CC1CC1)c(=O)n2CC1CC1` (centres unmarked) [Example 2, N-(1,3-bis(cyclopropylmethyl)-2,4-dioxo-1,2,3,4-tetrahydroquinazolin-6-yl)-N′-(3-chloro-4-cyanophenyl)-3-methylpentanediamide], the inhibition at 10 µM in test [1] came to 96%; in test [5] it was 97%.

`CCn1c(=O)c2cc(NC(=O)CC(C)CC(=O)Nc3ccc(C#N)c(Cl)c3)cc(F)c2n(CC)c1=O` (centres unmarked) [Example 129, N-(3-chloro-4-cyanophenyl)-N′-(1,3-diethyl-8-fluoro-2,4-dioxo-1,2,3,4-tetrahydroquinazolin-6-yl)-3-methylpentanediamide]: the inhibition at 1 µM in test [2] and in test [3] was 100% each time. In addition, the inhibition at 3 µM in test [4] (Jurkat) amounted to 102%.

In the case of `CCN1C(=O)C(c2ccccc2)Oc2cc(NC(=O)CC(C)CC(=O)Nc3ccc(C#N)c(Cl)c3)ccc21` (centres unmarked) [Example 12, N-(3-chloro-4-cyanophenyl)-N′-(4-ethyl-3-oxo-2-phenyl-3,4-dihydro-2H-1,4-benzoxazin-7-yl)-3-methylpentanediamide], the figures for the inhibition at 1 µM in test [2] and in test [3] were 98.3% and 104%, respectively. Further, the inhibition at 10 µM in test [1] and in test [5] was 97% each time. Besides, in test [4] (Jurkat), the inhibition at 3 µM is 120%.

Turning to `CCn1c(=O)n(C2CC2)c(=O)c2cc(NC(=O)CC(C)CC(=O)Nc3ccc(C#N)c(Cl)c3)ccc21` (centres unmarked) [Example 60, N-(3-chloro-4-cyanophenyl)-N′-(3-cyclopropyl-1-ethyl-2,4-dioxo-1,2,3,4-tetrahydroquinazolin-6-yl)-3-methylpentanediamide], the figures for the inhibition at 1 µM in test [2] and in test [3] were 102% and 103%, respectively. In addition, in test [4] (Jurkat), the inhibition at 3 µM was 122%.

In the case of `CCn1c(=O)n(C[Si](C)(C)C)c(=O)c2cc(NC(=O)CC(C)CC(=O)Nc3ccc(C#N)c(Cl)c3)ccc21` (centres unmarked) [Example 32, N-(3-chloro-4-cyanophenyl)-N′-(1-ethyl-2,4-dioxo-3-((trimethylsilyl)methyl)-1,2,3,4-tetrahydroquinazolin-6-yl)-3-methylpentanediamide], the inhibition at 1 µM is 98.5% in test [2] and 103% in test [3]. For the same compound, the inhibition at 3 µM in test [4] (Jurkat) was 114%.

In the case of `CCn1c(=O)n(COC)c(=O)c2cc(NC(=O)CC(C)CC(=O)Nc3ccc(C#N)c(Cl)c3)ccc21` (centres unmarked) [Example 19, N-(3-chloro-4-cyanophenyl)-N′-(1-ethyl-3-(methoxymethyl)-2,4-dioxo-1,2,3,4-tetrahydroquinazolin-6-yl)-3-methylpentanediamide], the inhibition at 1 µM in test [2] came out at 99.6%; in test [3], 104%. Moreover, the inhibition at 3 µM in test [4] (Jurkat) was determined as 115%.

For `CCn1c(=O)n(CC2CC2)c(=O)c2cc(NC(=O)CC[C@@H](O)C(=O)Nc3ccc(C#N)c(Cl)c3)ccc21` [Example 138, (2R)—N^1-(3-chloro-4-cyanophenyl)-N^5-(3-(cyclopropylmethyl)-1-ethyl-2,4-dioxo-1,2,3,4-tetrahydroquinazolin-6-yl)-2-hydroxypentanediamide], the inhibition at 1 µM came to 104% in test [2] and 100% in test [3]. Moreover, in test [4] (Jurkat), the inhibition at 3 µM was 104%.

In the case of `CCn1c(=O)c2cc(NC(=O)CC(C)CC(=O)Nc3ccc(C#N)c(Cl)c3)ccc2n(CSC)c1=O` (centres unmarked) [Example 99, N-(3-chloro-4-cyanophenyl)-N′-(3-ethyl-1-((methylsulfanyl)methyl)-2,4-dioxo-1,2,3,4-tetrahydroquinazolin-6-yl)-3-methylpentanediamide], the inhibition at 1 µM in test [2] was 95.6%; in test [3] it was 103%. Also, the inhibition at 3 µM in test [4] (Jurkat) came out at 102%.

`CC(CNC(=O)c1cc2c(=O)n(CC3CC3)c(=O)n(CC3CC3)c2cn1)CC(=O)Nc1ccc(C#N)c(Cl)c1` (centres unmarked) [Example 112, N-(4-((3-chloro-4-cyanophenyl)amino)-2-methyl-4-oxobutyl)-1,3-bis(cyclopropylmethyl)-2,4-dioxo-1,2,3,4-tetrahydropyrido[3,4-d]pyrimidine-6-carboxamide]: the inhibition at 1 µM amounted to 96.6% in test [2] and 100% in test [3]. The inhibition at 3 µM in test [4] (Jurkat) stood at 97.7%.

`CCn1c(=O)c2cc(C(=O)NCC(C)CC(=O)Nc3ccc(C#N)c(Cl)c3)ccc2n(CC)c1=O` (centres unmarked) [Example 4, N-(4-((3-chloro-4-cyanophenyl)amino)-2-methyl-4-oxobutyl)-1,3-diethyl-2,4-dioxo-1,2,3,4-tetrahydroquinazoline-6-carboxamide]: the inhibition at 1 µM came out at 96.7% in test [2] and 105% in test [3]. For the same compound, the inhibition at 10 µM in test [1] turned out to be 97%. For the same compound, the inhibition at 3 µM in test [4] (Jurkat) worked out at 116%.

Take `CCn1c(=O)c2cc(C(=O)NCC(CC(=O)Nc3ccc(C#N)c(Cl)c3)C(C)C)ccc2n(CC)c1=O` (centres unmarked) [Example 17, N-(4-((3-chloro-4-cyanophenyl)amino)-2-isopropyl-4-oxobutyl)-1,3-diethyl-2,4-dioxo-1,2,3,4-tetrahydroquinazoline-6-carboxamide]: the values for the inhibition at 1 µM in test [2] and in test [3] were 101% and 103%, respectively. The inhibition at 10 µM in test [1] amounted to 84%. Further, the inhibition at 3 µM in test [4] (Jurkat) is 121%.
